Values quoted from earlier work in patent publication US6428819B1, “Plant extracts for the preparation of pharmaceutical compositions for the treatment of hepatitis” (priority 1996, dated 2002).

B1: IFN-gamma: interferon gamma with known antiviral activity (protein, UniProt P01579 24-161, looked up)
Interferon gamma: QDPYVKEAENLKKYFNAGHSDVADNGTLFLGILKNWKEESDRKIMQSQIVSFYFKLFKNFKDDQSIQKSVETIKEDMNVKFFNSNKKKRDDFEKLTNYSVTDLNVQRKAIHELIQVMAELSPAAKTGKRKRSQMLFRG

System: hepatitis C
Conditions: literature reports

Molecule	treatment outcome in chronic hepatitis
Nc1nc2c(ncn2COCCO)c(=O)[nH]1 [Acyclovir]	unsatisfactory
B1	ineffective
